Measurements published in patent publication US20230286973A1, “PROTEIN SECRETION INHIBITORS” (KEZAR LIFE SCIENCES, priority 2020, published 2023).
Like-named read-outs stand apart in the source and are kept apart here.

What was measured:
[1] = tested on: PD1-ss+10aa/Gaussia Luciferase; assay: Dox-Induced PD1-ss-Gluc Assay; type: cell-based; conditions: 24 hr Dox induction, 293FRT/TO cells, read-out: 24 hr Dox Inducible PD1ssGluc 293FRT/TO: Mean IC50
In short: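 Flp-In 293 T-REx cells stably carrying a doxycycline-inducible Gaussia luciferase fused to the PD1 signal sequence plus 10 aa were plated the day before. Compound dilutions in DMSO/media containing doxycycline were then added and incubated at 37 °C, 5% CO2. Data for undefined stereochemistry refer to stereoisomer mixtures.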

[2] = Liver Microsome Stability Assay (rat); conditions: rat liver microsomes, with NADPH, 1.0 uM compound
Experimental: (§1) Stability of a compound was assessed in the presence of liver microsomes from various sources—mouse, rat, monkey and human liver microsomes. 1.0 uM compound, 0.4% DMSO in 0.1 M Potassium Phosphate with 1.0 mg/mL liver microsomes, were incubated at 37° C. with or without 1 mM NADPH. The samples were quenched at 0, and 30 minutes.

[3] = tested on: multiple myeloma cell line NCI-H929; assay: H929 Cell Viability Assay; type: cell-based, human; conditions: Homo sapiens, NCI-H929, 48 h, NCI-H929 cells, Celltiter-Glo
In short: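 NCI-H929 cells, resuspended in RPMI 1640 with 10% FBS and 2 mM glutamine, were treated with compound dilutions in DMSO/media and incubated 48 hours at 37° C, 5% CO2. Viability was read by CellTiter-Glo luminescence. Compounds drawn without stereochemistry were tested as stereoisomer mixtures.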

[4] = Liver Microsome Stability Assay (monkey); conditions: monkey liver microsomes, with NADPH, 1.0 uM compound
Experimental: as §1

[5] = tested on: multiple myeloma cell line U266B1; assay: U266 Cell Viability Assay; type: cell-based, human; conditions: Homo sapiens, U-266, 48 h, U266B1 cells, Celltiter-Glo
In short: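 Cells grown in RPMI 1640 with 10% FBS, 2 mM glutamine and penicillin/streptomycin were exposed to compound dilutions in DMSO/media for 48 hours at 37° C., 5% CO2. Viability was read by CellTiter-Glo luminescence. Undefined stereocentres mean data for stereoisomer mixtures.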

[6] = tested on: HER3-ss+4aa/Gaussia Luciferase; assay: Dox-Induced Her3-ss-Gluc Assay; type: cell-based; conditions: 24 hr Dox induction, 293FRT/TO cells, read-out: 24 hr Dox Inducible Her3(ss + 4)Gluc 293FRT/TO: Mean IC50
In short: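 Stable Flp-In 293 T-REx line expressing Gaussia luciferase fused to the HER3 signal sequence plus 4 amino acids under tetracycline-regulated (T-REx) control. Cells plated the day before, then treated with compound dilutions in DMSO/media containing doxycycline and incubated at 37° C., 5% CO2.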

[7] = tested on: IL-2-FL/Gaussia Luciferase; assay: Dox Induced IL2-FL-Gluc Assay; type: cell-based; conditions: for IC50: 24 hr Dox induction, 293FRT/TO cells, read-out: 24 hr Dox Inducible IL2FLGluc 293FRT/TO: Mean IC50; for 24 hr Dox Inducible IL2FLGluc 293FRT/TO: IL2/PD1: ratio of IL2FLGluc IC50 to PD1ssGluc IC50
In short: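 Flp-In 293 T-REx cells stably carrying doxycycline-inducible full-length IL-2 (aa 1-153) fused at its C-terminus to Gaussia luciferase, selected with hygromycin and blasticidin. Cells were plated the day before, then treated with compounds in DMSO/media containing doxycycline at 37° C, 5% CO2.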

[8] = Liver Microsome Stability Assay (mouse); conditions: mouse liver microsomes, with NADPH, 1.0 uM compound
Experimental: as §1

[9] = tested on: TNFα-FL/Gaussia Luciferase; assay: Dox Induced TNFα-FL-Gluc Assay; type: cell-based; conditions: for IC50: 24 hr Dox induction, 293FRT/TO cells, read-out: 24 hr Dox Inducible TNFaFLGluc 293FRT/TO: Mean IC50; for 24 hr Dox Inducible TNFaFLGluc 293FRT/TO: TNF/PD1: ratio of TNFaFLGluc IC50 to PD1ssGluc IC50
In short: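 Flp-In 293 T-REx cells stably expressing full-length TNFα (aa 1-233) fused at its C-terminus to Gaussia luciferase under tetracycline-regulated control were plated the day before assay. Compound dilutions in DMSO/media containing doxycycline were added and incubated at 37 °C, 5% CO2. Unspecified stereochemistry denotes stereoisomer mixtures.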

[10] = Liver Microsome Stability Assay (human); conditions: human liver microsomes, with NADPH, 1.0 uM compound
Experimental: as §1

[11] = '<=>' given where both are I.A.

| SMILES | IC50 [1] | Liver Microsome Stability (Multiple Species): Rat - % Remaining after 30 min w/NADPH [2] | EC50 [3] | Liver Microsome Stability (Multiple Species): Monkey - % Remaining after 30 min w/NADPH [4] | EC50 [5] | IC50 [6] | IC50 [7] | 24 hr Dox Inducible IL2FLGluc 293FRT/TO: IL2/PD1 [7] | Liver Microsome Stability (Multiple Species): Mouse - % Remaining after 30 min w/NADPH [8] | IC50 [9] | 24 hr Dox Inducible TNFaFLGluc 293FRT/TO: TNF/PD1 [9] | Liver Microsome Stability (Multiple Species): Human - % Remaining after 30 min w/NADPH [10] | IC50 ([1]; mean) | IC50 ([6]; mean) | IC50 ([7]; mean) | 24 hr Dox Inducible IL2FLGluc 293FRT/TO: IL2/PD1 [7, 11] | IC50 ([9]; mean) | 24 hr Dox Inducible TNFaFLGluc 293FRT/TO: TNF/PD1 [9, 11] |
| --- | --- | --- | --- | --- | --- | --- | --- | --- | --- | --- | --- | --- | --- | --- | --- | --- | --- | --- |
| O=C(Nc1nc(/C=C/c2cocn2)cs1)c1cccn1Cc1ccncc1 [Compound B1, (E)-N-(4-(2-(oxazol-4-yl)vinyl)thiazol-2-yl)-1-(pyridin-4-ylmethyl)-1H-pyrrole-2-carboxamide] | 129 nM | 4.96% | > 25000 nM | 1.07% | > 25000 nM | 13000 nM | 19900 nM | 160 | 5.93% | > 25000 nM | >194 | 1.81% | – | – | – | – | – | – |
| Nc1ccc(N2CCC[C@@H]2c2csc(NC(=O)c3cccn3Cc3ccncc3)n2)cc1 [Compound A20] | 16.4 nM | 26.3% | 340 nM | 2.72% | 4700 nM | 40.3 nM | 39.6 nM | 2.4 | 7.28% | 131 nM | 8 | 4.63% | – | – | – | – | – | – |
| O=C(Nc1nc([C@H]2CCCN2c2ccc(OC3CCN(C(=O)C(F)(F)F)CC3)cc2)cs1)c1cccn1Cc1ccnc(F)c1 [Compound A92, (R)-1-((2-fluoropyridin-4-yl)methyl)-N-(4-(1-(4-((1-(2,2,2-trifluoroacetyl)piperidin-4-yl)oxy)phenyl)pyrrolidin-2-yl)thiazol-2-yl)-1H-pyrrole-2-carboxamide] | 23.3 nM | 43.6% | 463 nM | 22.5% | > 25000 nM | 47.3 nM | 30.6 nM | 1.3 | 52.3% | 254 nM | 10.9 | 63.5% | – | – | – | – | – | – |
| CC(=O)N1CCC(Nc2ccc(N3CCC[C@@H]3c3csc(NC(=O)c4cccn4Cc4ccnc(F)c4)n3)cc2)CC1 [Compound A147, (R)-N-(4-(1-(4-((1-acetylpiperidin-4-yl)amino)phenyl)pyrrolidin-2-yl)thiazol-2-yl)-1-((2-fluoropyridin-4-yl)methyl)-1H-pyrrole-2-carboxamide] | 71.9 nM | 2.95% | 469 nM | 0.94% | 3480 nM | 106 nM | 109 nM | 1.5 | 5.61% | 316 nM | 4.4 | 8.6% | – | – | – | – | – | – |
| CCc1ccc(N2CCC[C@@H]2c2csc(NC(=O)c3cccn3Cc3ccnc(F)c3)n2)cc1 [Compound A77, (R)-N-(4-(1-(4-ethylphenyl)pyrrolidin-2-yl)thiazol-2-yl)-1-((2-fluoropyridin-4-yl)methyl)-1H-pyrrole-2-carboxamide] | 1.84 nM | 38.1% | 60.1 nM | 22.4% | > 25000 nM | 3.62 nM | 3.22 nM | 1.8 | 79.6% | 19.1 nM | 10.4 | 72.8% | – | – | – | – | – | – |
| CC(=O)NCc1ccc(N2CCC[C@@H]2c2csc(NC(=O)c3cccn3Cc3ccncc3)n2)cc1 [Compound A45, (R)-N-(4-(1-(4-(acetamidomethyl)phenyl)pyrrolidin-2-yl)thiazol-2-yl)-1-(pyridin-4-ylmethyl)-1H-pyrrole-2-carboxamide] | 16.4 nM | 0.29% | 425 nM | 0.1% | > 25000 nM | 34.3 nM | 55.5 nM | 3.4 | 0.76% | 220 nM | 13.4 | 0.08% | – | – | – | – | – | – |
| CN(C)C(=O)CCCCn1cccc1C(=O)Nc1nc([C@H]2CCCN2c2ccccc2)cs1 [Compound C60, (R)-1-(5-(dimethylamino)-5-oxopentyl)-N-(4-(1-phenylpyrrolidin-2-yl)thiazol-2-yl)-1H-pyrrole-2-carboxamide] | – | 6.4% | > 25000 nM | 0.09% | > 25000 nM | – | – | – | 0.25% | – | – | 0.05% | 8590 nM | > 25000 nM | > 25000 nM | 2.9 | > 25000 nM | >2.91 |
| NC(=O)CCn1cccc1C(=O)Nc1nc([C@H]2CCCN2c2ccccc2)cs1 [Compound C15] | – | 18.3% | > 25000 nM | 22.4% | > 25000 nM | – | – | – | 31.7% | – | – | 29.3% | > 25000 nM | > 25000 nM | > 25000 nM | 1 | > 25000 nM | – |
